Structures are written as SMILES. Where two headings read alike, the source gives them in different places.

One assay deals with EGFR wildtype (WT) (Homo sapiens, UniProt P00533). Nature of the assay: Biochemical EGFR kinase inhibition assay (Lance Ultra TR-FRET), wildtype. The protocol:
(§1) Biochemical EGFR kinase assays were conducted using Lance Ultra time-resolved fluorescence resonance energy transfer (TR-FRET) technology from Perkin-Elmer. Compounds of the invention were initially diluted to 20 mM in 100% DMSO for storage and made into kinase buffer solution to create a compound concentration ranging from 0.003 μM and 10 μM.
(§2) Each kinase reactions were incubated at room temperature for 1 hour and then stopped by the addition of 4 μL of stop solution (10 mM EDTA). The specific Europium-labeled-anti-phosphopeptide antibody (PerkinElmer, AD0069) diluted in LANCE detection buffer was then added to a final concentration of 2 nM. After 60 minutes incubation at room temperature the LANCE signal was measured on an EnVision Multilabel Reader (Perkin-Elmer). Excitation wavelength was set at 320 nm and emission monitored at 615 nm (donor) and 665 nm (acceptor). The IC50 values were determined using GraphPad prism software (GraphPad Software, Inc., San Diego, CA, USA).
On the technique in general: Time-resolved FRET reads energy transfer from a long-lived donor to a nearby acceptor.

The next assay concerns the target EGFR Del19/T790M/C797S (Homo sapiens, UniProt P00533, C797S/DEL746-750/T790M). Nature of the assay: Biochemical EGFR kinase inhibition assay (Lance Ultra TR-FRET), triple mutant del19/T790M/C797S. The protocol:
as §1, §2

The target of another assay is EGFR Del19/C797S (Homo sapiens, UniProt P00533, C797S/DEL746-750). The assay is described as follows: Biochemical EGFR kinase inhibition assay (Lance Ultra TR-FRET), double mutant del19/C797S. The protocol:
as §1, §2

A further assay concerns the target EGFR L858R/T790M/C797S (Homo sapiens, UniProt P00533, C797S/L858R/T790M). Nature of the assay: Biochemical EGFR kinase inhibition assay (Lance Ultra TR-FRET), triple mutant L858R/T790M/C797S. Particulars: Km ATP; read-out: IC50 L858R/T790M/C797S (nM) Km ATP. The protocol: as §1, §2
The mark [1] stands for this setting: ATP at Km, read-out: IC50 WT (nM), Km ATP.
The mark [2] stands for this setting: ATP at Km, read-out: IC50 Del19/T790M/C797S (nM), Km ATP.
[3] abbreviates: ATP at Km, read-out: IC50 Del19/C797S (nM), Km ATP.
[4] abbreviates: Km ATP, read-out: IC50 WT (nM) Km ATP.
[5] abbreviates: Km ATP, read-out: IC50 Del19/T790M/C797S (nM) Km ATP.
The mark [6] stands for this setting: Km ATP, read-out: IC50 Del19/C797S (nM) Km ATP.
[7] abbreviates: IC50 Del19/C797S (nM), 100 μM ATP.

Sequence of EGFR Del19/T790M/C797S (P00533 with tags, fused parts or gaps DEL746-750/T790M/C797S): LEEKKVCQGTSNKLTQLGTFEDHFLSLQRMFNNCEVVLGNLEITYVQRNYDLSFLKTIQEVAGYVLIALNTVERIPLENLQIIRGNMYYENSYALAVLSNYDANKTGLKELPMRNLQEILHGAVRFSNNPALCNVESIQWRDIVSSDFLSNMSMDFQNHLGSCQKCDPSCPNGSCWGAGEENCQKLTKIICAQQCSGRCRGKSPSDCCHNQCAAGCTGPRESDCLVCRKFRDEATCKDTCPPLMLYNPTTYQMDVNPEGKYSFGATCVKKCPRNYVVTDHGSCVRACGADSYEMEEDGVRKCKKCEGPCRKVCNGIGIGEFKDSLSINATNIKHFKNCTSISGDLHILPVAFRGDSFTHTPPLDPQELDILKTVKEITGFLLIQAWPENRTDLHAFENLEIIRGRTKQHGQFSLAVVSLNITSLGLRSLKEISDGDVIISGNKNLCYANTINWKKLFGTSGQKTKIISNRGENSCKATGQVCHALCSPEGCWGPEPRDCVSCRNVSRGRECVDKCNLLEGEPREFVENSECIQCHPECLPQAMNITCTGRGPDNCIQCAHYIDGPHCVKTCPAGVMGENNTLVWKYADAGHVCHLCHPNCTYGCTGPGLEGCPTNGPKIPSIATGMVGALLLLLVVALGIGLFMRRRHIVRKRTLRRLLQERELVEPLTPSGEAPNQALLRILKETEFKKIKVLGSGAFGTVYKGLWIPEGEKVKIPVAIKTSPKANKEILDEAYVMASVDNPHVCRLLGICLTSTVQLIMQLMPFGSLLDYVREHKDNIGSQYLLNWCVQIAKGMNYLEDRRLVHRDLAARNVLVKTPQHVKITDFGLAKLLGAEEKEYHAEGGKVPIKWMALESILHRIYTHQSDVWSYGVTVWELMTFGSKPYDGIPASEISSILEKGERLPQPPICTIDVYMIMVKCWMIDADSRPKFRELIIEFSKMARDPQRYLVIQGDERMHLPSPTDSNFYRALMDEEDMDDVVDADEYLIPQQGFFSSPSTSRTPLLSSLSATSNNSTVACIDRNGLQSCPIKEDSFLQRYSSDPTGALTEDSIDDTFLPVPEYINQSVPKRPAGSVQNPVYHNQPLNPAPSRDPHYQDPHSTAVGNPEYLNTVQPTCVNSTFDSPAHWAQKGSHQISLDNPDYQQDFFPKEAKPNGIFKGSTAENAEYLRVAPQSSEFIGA
Sequence of EGFR Del19/C797S (P00533 with tags, fused parts or gaps DEL746-750/C797S): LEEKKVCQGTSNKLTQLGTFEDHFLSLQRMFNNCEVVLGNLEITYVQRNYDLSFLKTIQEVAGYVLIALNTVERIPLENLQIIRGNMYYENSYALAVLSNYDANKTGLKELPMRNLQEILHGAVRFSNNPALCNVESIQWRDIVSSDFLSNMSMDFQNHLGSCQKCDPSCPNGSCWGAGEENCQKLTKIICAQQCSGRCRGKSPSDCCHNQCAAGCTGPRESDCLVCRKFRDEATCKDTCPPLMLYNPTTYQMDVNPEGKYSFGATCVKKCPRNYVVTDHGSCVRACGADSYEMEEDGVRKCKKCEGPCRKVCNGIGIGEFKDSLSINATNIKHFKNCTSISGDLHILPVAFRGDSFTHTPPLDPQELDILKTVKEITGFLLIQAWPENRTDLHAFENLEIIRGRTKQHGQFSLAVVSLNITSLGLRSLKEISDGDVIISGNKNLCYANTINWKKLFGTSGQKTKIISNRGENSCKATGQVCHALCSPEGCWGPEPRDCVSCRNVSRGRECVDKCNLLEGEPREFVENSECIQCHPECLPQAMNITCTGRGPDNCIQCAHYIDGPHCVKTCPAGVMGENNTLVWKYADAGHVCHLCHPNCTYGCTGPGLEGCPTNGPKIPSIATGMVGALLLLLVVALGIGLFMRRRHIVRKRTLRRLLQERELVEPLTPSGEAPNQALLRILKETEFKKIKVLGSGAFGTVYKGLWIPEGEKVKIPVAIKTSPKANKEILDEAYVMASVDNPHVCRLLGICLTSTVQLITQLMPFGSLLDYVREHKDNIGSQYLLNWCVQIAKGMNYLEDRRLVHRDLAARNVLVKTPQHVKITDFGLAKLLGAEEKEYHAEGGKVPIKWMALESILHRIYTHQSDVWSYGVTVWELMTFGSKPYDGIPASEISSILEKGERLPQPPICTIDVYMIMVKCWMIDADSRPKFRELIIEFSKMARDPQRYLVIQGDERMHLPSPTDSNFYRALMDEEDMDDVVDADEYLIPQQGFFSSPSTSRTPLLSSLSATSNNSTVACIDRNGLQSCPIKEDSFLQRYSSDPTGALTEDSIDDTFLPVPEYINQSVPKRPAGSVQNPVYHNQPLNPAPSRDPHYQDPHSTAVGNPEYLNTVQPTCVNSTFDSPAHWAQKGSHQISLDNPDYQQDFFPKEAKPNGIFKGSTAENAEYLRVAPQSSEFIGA
Sequence of EGFR wildtype (WT) (P00533 25-1210): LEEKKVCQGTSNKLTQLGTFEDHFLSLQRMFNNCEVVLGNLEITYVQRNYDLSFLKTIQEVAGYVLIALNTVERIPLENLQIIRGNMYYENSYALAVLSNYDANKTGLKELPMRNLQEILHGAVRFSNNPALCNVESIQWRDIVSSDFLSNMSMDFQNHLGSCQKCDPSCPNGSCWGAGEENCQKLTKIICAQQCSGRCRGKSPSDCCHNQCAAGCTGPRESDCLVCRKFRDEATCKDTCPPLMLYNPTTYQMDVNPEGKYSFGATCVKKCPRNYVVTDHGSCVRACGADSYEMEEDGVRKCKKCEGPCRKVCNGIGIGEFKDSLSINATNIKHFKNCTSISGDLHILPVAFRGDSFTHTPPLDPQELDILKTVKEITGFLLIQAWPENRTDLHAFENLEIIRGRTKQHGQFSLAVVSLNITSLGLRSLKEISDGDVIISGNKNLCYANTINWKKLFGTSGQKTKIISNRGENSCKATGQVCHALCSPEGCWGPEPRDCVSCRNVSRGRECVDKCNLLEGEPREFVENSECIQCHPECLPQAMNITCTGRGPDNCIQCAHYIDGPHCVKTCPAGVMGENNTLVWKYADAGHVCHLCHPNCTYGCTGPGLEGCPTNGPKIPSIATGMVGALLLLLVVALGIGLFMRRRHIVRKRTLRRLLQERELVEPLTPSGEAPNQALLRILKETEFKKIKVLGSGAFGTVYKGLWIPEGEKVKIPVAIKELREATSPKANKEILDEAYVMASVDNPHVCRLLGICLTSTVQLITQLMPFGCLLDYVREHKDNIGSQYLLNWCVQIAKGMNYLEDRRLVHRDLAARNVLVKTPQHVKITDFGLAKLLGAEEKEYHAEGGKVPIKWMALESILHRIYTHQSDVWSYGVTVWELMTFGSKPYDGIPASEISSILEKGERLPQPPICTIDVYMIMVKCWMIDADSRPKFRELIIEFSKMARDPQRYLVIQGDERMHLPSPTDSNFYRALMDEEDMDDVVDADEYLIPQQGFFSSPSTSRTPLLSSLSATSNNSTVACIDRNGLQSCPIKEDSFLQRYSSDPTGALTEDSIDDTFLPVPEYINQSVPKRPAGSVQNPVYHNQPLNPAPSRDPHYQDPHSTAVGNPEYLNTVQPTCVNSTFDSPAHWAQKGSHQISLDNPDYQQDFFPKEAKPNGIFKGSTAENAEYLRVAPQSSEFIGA
Sequence of EGFR L858R/T790M/C797S (P00533 25-1210 T790M/C797S/L858R): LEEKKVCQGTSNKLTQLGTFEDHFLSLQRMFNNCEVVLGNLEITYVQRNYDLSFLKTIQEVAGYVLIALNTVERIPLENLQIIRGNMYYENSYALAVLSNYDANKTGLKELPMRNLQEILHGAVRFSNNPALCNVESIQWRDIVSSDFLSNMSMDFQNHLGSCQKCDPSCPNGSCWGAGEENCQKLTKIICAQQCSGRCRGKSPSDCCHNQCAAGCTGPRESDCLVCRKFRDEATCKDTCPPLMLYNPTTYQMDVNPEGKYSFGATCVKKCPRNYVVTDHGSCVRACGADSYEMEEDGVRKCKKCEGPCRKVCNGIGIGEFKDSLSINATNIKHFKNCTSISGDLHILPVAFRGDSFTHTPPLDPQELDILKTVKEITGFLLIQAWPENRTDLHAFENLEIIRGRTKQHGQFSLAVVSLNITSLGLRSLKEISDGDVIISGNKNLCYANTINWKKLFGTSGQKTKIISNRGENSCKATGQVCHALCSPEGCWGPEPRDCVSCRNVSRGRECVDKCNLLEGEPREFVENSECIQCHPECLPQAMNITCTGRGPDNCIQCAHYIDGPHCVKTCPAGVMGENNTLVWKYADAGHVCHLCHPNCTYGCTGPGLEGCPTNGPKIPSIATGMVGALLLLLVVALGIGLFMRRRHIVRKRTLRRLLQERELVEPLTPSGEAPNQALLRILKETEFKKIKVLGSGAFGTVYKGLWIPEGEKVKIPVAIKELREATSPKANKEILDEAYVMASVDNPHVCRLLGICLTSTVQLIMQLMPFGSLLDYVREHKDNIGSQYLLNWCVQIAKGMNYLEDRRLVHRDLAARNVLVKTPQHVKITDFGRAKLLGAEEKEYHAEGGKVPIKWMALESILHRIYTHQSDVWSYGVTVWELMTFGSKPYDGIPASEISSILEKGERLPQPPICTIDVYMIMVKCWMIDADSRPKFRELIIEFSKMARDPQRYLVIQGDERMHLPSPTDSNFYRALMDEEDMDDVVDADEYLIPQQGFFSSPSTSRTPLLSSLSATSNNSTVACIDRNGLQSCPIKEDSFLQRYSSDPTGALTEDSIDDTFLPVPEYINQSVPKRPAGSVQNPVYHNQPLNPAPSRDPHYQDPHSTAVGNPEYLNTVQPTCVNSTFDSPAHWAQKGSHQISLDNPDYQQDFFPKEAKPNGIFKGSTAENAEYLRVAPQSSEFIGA

For `CC(C)Nc1cc(Nc2ccnc(-c3cnn(S(=O)(=O)C4CC4)c3)n2)ncc1C#CC1CCOCC1` [Example 206, N^2-(2-(1-(Cyclopropylsulfonyl)-1H-pyrazol-4-yl)pyrimidin-4-yl)-N^4-isopropyl-5-((tetrahydro-2H-pyran-4-yl)ethynyl)pyridine-2,4-diamine], the IC50 at EGFR wildtype (WT) (setting [1]) is 201 nM; on EGFR Del19/T790M/C797S (setting [2]), 3.5 nM; at EGFR Del19/C797S (setting [3]) it was 69.1 nM.

Consider `CCS(=O)(=O)N1CCN(c2cc(Nc3ccnc(-c4cnn(S(=O)(=O)C5CC5)c4)n3)ncc2C#Cc2cnn(C)c2)CC1` [Example 3, 2-(1-(Cyclopropylsulfonyl)-1H-pyrazol-4-yl)-N-(4-(4-(ethylsulfonyl)piperazin-1-yl)-5-((1-methyl-1H-pyrazol-4-yl)ethynyl)pyridin-2-yl)pyrimidin-4-amine], for which the IC50 worked out at 3830 nM at EGFR wildtype (WT) (setting [4]), 6.6 nM on EGFR Del19/T790M/C797S (setting [5]) and 240 nM at EGFR Del19/C797S (setting [6]).

`CC(C)Nc1cc(Nc2ccnc(-c3cnn(S(=O)(=O)C4CC4)c3)n2)ncc1C#CC(C)(C)O` [Example 204, 4-(6-((2-(1-(Cyclopropylsulfonyl)-1H-pyrazol-4-yl)pyrimidin-4-yl)amino)-4-(isopropylamino)pyridin-3-yl)-2-methylbut-3-yn-2-ol]: the IC50 at EGFR wildtype (WT) (setting [1]) is 264 nM; against EGFR wildtype (WT) (IC50 WT (nM), 100 μM ATP), greater than 10000 nM; on EGFR Del19/T790M/C797S (setting [2]), 22.7 nM; on EGFR Del19/C797S (setting [7]) it was 187 nM.

For `CC(C)n1cc(C#Cc2cnc(Nc3ccnc(-c4cnn(S(=O)(=O)C5CC5)c4)n3)cc2-c2cnn(C3CC3)c2)cn1` [Example 236, N-(4-(1-cyclopropyl-1H-pyrazol-4-yl)-5-((1-isopropyl-1H-pyrazol-4-yl)ethynyl)pyridin-2-yl)-2-(1-(cyclopropylsulfonyl)-1H-pyrazol-4-yl)pyrimidin-4-amine], the figures for the IC50 at EGFR L858R/T790M/C797S, at EGFR Del19/T790M/C797S (setting [5]) and at EGFR Del19/C797S (setting [6]) were 45.3 nM, 11.3 nM and 359 nM, respectively.

With `CCC(C)Oc1cc(Nc2ccnc(-c3cnn(S(=O)(=O)C4CC4)c3)n2)ncc1C#Cc1cnn(C(C)C)c1` (stereo not drawn) [Example 57, N-(4-(sec-Butoxy)-5-((1-isopropyl-1H-pyrazol-4-yl)ethynyl)pyridin-2-yl)-2-(1-(cyclopropylsulfonyl)-1H-pyrazol-4-yl)pyrimidin-4-amine], the results for the IC50 on EGFR L858R/T790M/C797S, on EGFR Del19/T790M/C797S (setting [5]) and on EGFR Del19/C797S (setting [6]) were 26.1 nM, 13.9 nM and 493 nM, respectively.

Take `CC(C)Nc1cc(Nc2ccnc(-c3cnn(S(=O)(=O)C4CC4)c3)n2)ncc1C#Cc1csc(C2CC2)n1` [Example 205, N^2-(2-(1-(Cyclopropylsulfonyl)-1H-pyrazol-4-yl)pyrimidin-4-yl)-5-((2-cyclopropylthiazol-4-yl)ethynyl)-N^4-isopropylpyridine-2,4-diamine]: the results for the IC50 on EGFR wildtype (WT) (setting [1]), on EGFR Del19/T790M/C797S (setting [2]) and at EGFR Del19/C797S (setting [3]) were 587 nM, 18.3 nM and 265 nM, respectively.

With `CN(CCO)c1cc(Nc2ccnc(-c3cnn(S(=O)(=O)C4CC4)c3)n2)ncc1C#Cc1cnn(C)c1` [Example 37, 2-((2-((2-(1-(Cyclopropylsulfonyl)-1H-pyrazol-4-yl)pyrimidin-4-yl)amino)-5-((1-methyl-1H-pyrazol-4-yl)ethynyl)pyridin-4-yl)(methyl)amino)ethan-1-ol], the IC50 at EGFR wildtype (WT) (IC50 WT (nM), 100 μM ATP) is greater than 10000 nM; at EGFR wildtype (WT) (setting [4]) it was 435 nM; at EGFR Del19/T790M/C797S (setting [5]), 20.2 nM; against EGFR Del19/C797S (setting [7]), 870 nM.

For `CN(CCO)c1cc(Nc2ccnc(-c3cnn(S(=O)(=O)C4CC4)c3)n2)ncc1C#Cc1cnn(CCF)c1` [Example 38, 2-((2-((2-(1-(Cyclopropylsulfonyl)-1H-pyrazol-4-yl)pyrimidin-4-yl)amino)-5-((1-(2-fluoroethyl)-1H-pyrazol-4-yl)ethynyl)pyridin-4-yl)(methyl)amino)ethan-1-ol], the IC50 was greater than 10000 nM at EGFR wildtype (WT) (IC50 WT (nM), 100 μM ATP); 368 nM on EGFR wildtype (WT) (setting [4]); 17.6 nM on EGFR Del19/T790M/C797S (setting [5]); 464 nM against EGFR Del19/C797S (setting [7]).

Values taken from patent US11981658B2, “Substituted aminopyridine compounds as EGFR inhibitors” (YUHAN CORPORATION, priority 2021, dated 2024).
